Experimental data published in patent US4017487A, “7β-(D-5-amino-5-carboxyvaleramido )-7-methoxy-3-substituted-3-cephem-4-carboxylic acid antibiotics” (priority 1974, dated 1977).
Where “and” joins values, the source holds several entries; their conditions need not be identical. Equal values may be shown once. Entries after “also recorded” stand apart in the source; their conditions may differ. Read-outs that look alike come from different tables or passages of the source.

Key:
[1] = test system: gram-negative and gram-positive infections; assay: In vivo protection against infection (general statements); set-up: species or system mice; conditions: for in vivo protection / activity: mouse
Excerpt: (§1) Methods: The method employed in this characterization is as follows: Female white Swiss mice, average weight 20-23 grams, were infected intraperitoneally with 3-20 times the number of organisms calculated to be lethal for 50% of the infected control animals (3-20 LD50 doses). At the time of infection and again six hours later, therapy was given by the designated route. Controls of the virulence of the culture and the toxicity of the antibiotic for uninfected mice were included in the tests. Seven days after infection the test was considered complete and the amount of the antibiotic (I) that would be required to protect 50% of the infected and treated animals was calculated by the method of Knudsen and Curtis; J. Amer. Stat. Assoc. Vol. 42: page 282 (1947).
The method employed in these studies is the same as described above with regard to the in vivo characterization of 810A.

[2] = test system: cephalosporinases; assay: Resistance to cephalosporinases; type: biochemical
[3] = test system: Diplococcus pneumoniae 2400; assay: In vivo mouse protection test; set-up: species or system white Swiss mice; conditions: s.c. × two doses
Excerpt: as §1
(§2) The method employed in these studies is the same as described above with regard to the in vivo characterization of 810A. The results of these tests are described below in Table XIb:
(§3) Administration was by subcutaneous injection. At the completion of the test period, usually seven days after administration, the amount of product required to protect 50% of the mice (ED50) from this otherwise fatal injection was calculated: […]

[4] = test system: Escherichia coli; assay: In vivo mouse protection test; set-up: species or system white Swiss mice; conditions: s.c. × two doses
Excerpt: as §1, §2, §3

[5] = test system: Aerobacter aerogenes; assay: In vivo mouse protection test; set-up: species or system white Swiss mice; conditions: s.c. × two doses
Excerpt: as §1, §2, §3

[6] = test system: Klebsiella pneumoniae AD; assay: In vivo mouse protection test; set-up: species or system white Swiss mice; conditions: s.c. × two doses
Excerpt: as §1, §2, §3

[7] = test system: Proteus mirabilis; assay: In vivo mouse protection test; set-up: species or system white Swiss mice; conditions: s.c. × two doses
Excerpt: as §1, §2, §3

[8] = test system: Pasteurella multocida; assay: In vivo mouse protection test; set-up: species or system white Swiss mice; conditions: s.c. × two doses
Excerpt: as §1, §2, §3

[9] = test system: Salmonella schottmuelleri; assay: In vivo mouse protection test; set-up: species or system white Swiss mice; conditions: s.c. × two doses
Excerpt: as §1, §2, §3

[10] = test system: Klebsiella pneumoniae B; assay: In vivo mouse protection test; set-up: species or system white Swiss mice; conditions: s.c. × two doses
Excerpt: as §1, §2, §3

[11] = test system: Paracolobactrum arizonae; assay: In vivo mouse protection test; set-up: species or system white Swiss mice; conditions: s.c. × two doses
Excerpt: as §1, §2, §3

[12] = test system: Proteus vulgaris; assay: In vivo mouse protection test; set-up: species or system white Swiss mice; conditions: s.c. × two doses
Excerpt: as §1, §2, §3

[13] = test system: Salmonella typhosa; assay: In vivo mouse protection test; set-up: species or system white Swiss mice; conditions: s.c. × two doses
Excerpt: as §1, §2, §3

[14] = test system: Proteus morganii 3202; assay: In vivo mouse protection test; set-up: species or system white Swiss mice; conditions: s.c. × two doses
Excerpt: as §1, §2, §3

[15] = Blood appearance and urinary excretion; conditions: in vivo
[16] = test system: degradative bacteria / enzymatic degradation; assay: Resistance to enzymatic degradation / bacterial inactivation (general statements); type: biochemical
Excerpt: Bacterial Inactivation with 810A: An in vitro study was designed to determine the resistance of Antibiotic 810A, to bacterial inactivation as compared with cephalosporin C, cephaloridine and cephalothin.

[17] = Isoelectric point and pH stability; type: physicochemical
[18] = test system: Proteus morganii 356; assay: In vivo mouse protection test, cephalosporin-resistant clinical isolate; set-up: species or system white Swiss mice; conditions: s.c. × 2 doses
Excerpt: as §1
In addition to the aforementioned in vivo trials of the product, a clinical isolate of Proteus morganii 356 which is resistant to cephalosporins and capable of degrading cephalosporin C, was employed in a mouse protection test performed in the same manner as reported above.

[19] = test system: Escherichia coli 236; assay: Bacterial inactivation; conditions: four hours; B. subtilis (MB-964); 240 min
[20] = test system: Escherichia coli strains; assay: microbe, parasite or virus in culture; type: cell-based; conditions: 16 h, read-out: Inhibition Zone Diameter, 166 μg/ml, Pleocidin-resistant, 37° C.
[21] = test system: Alcaligenes viscosus (MB-12); assay: Bacterial inactivation, washed bacterial cells; conditions: 4 hour incubation; assayed on B. subtilis (MB-964) plates
[22] = test system: Vibrio percolans; assay: In vitro disc-plate agar diffusion, antibacterial spectrum (7 mm = no zone); type: cell-based; conditions: Comamonas terrigena, 16 h; 166 μg/ml; inoculum 10 ml/150 ml; 27° C.; read-out: Inhibition Zone Diameter
[23] = test system: gram-negative and gram-positive bacteria; assay: Antibacterial activity (general statements); type: cell-based
[24] = test system: Proteus mirabilis 241; conditions: washed bacterial cells, 4 h, pH 7.5
[25] = test system: Xanthomonas vesicatoria; assay: In vitro disc-plate agar diffusion, antibacterial spectrum (7 mm = no zone); type: cell-based; conditions: 16 h, read-out: Inhibition Zone Diameter
[26] = test system: Bacillus subtilis; assay: as above; type: cell-based; conditions: 16 h, read-out: Inhibition Zone Diameter
[27] = test system: Proteus morganii 356; conditions: washed bacterial cells, 4 h, pH 7.5
[28] = test system: Bacillus sp.; assay: In vitro disc-plate agar diffusion, antibacterial spectrum (7 mm = no zone); type: cell-based; conditions: 16 h, 166 μg/ml, inoculum 5 ml/150 ml, 25° C., read-out: Inhibition Zone Diameter
[29] = test system: Salmonella gallinarum; assay: as above; type: cell-based; conditions: Salmonella enterica, 16 h, 166 μg/ml, inoculum 10 ml/150 ml, 25° C., read-out: Inhibition Zone Diameter
[30] = test system: Vibrio percolans MB-1272; assay: Disc-plate assay using Vibrio percolans; conditions: broth
[31] = test system: Proteus morganii 251; conditions: washed bacterial cells, 4 h, pH 7.5

CO[C@@]1(NC(=O)CCC[C@@H](N)C(=O)O)C(=O)N2C(C(=O)O)=C(COC(N)=O)CS[C@@H]21 [Example 842A]
in vivo protection / activity [1]: protects against infection with three species of Proteus, two of Salmonella, one strain of Escherichia coli, two of Klebsiella and also against Paracolobactrum arizonae, Aerobacter aerogenes, Pasteurella multocida and Diplococcus pneumoniae 2400
in vivo protection / activity ([1]; listed as Antibiotic 842A): effectiveness in vivo on Proteus morganii and an effectiveness against the following gram-negative bacteria: Escherichia coli, Proteus vulgaris, Proteus mirabilis, Proteus morganii, Salmonella schottmuelleri, Klebsiella pneumoniae AD, Klebsiella pneumoniae B, and Paracolobactrum arizonae
oral protection against infections ([1]; oral): protects against infections due to Paracolobactrum arizonae 3720, Proteus vulgaris 1810, and Salmonella schottmuelleri 3010
resistance to cephalosporinases [2]: greater resistance to cephalosporinases
ED50 by Subcutaneous Route × Two Doses [3]: 566 µg
ED50 by Subcutaneous Route × Two Doses [4]: 200 µg
ED50 by Subcutaneous Route × Two Doses [5]: 49 µg
ED50 by Subcutaneous Route × Two Doses [6]: 125 µg
ED50 by Subcutaneous Route × Two Doses [7]: 276 µg
ED50 by Subcutaneous Route × Two Doses [8]: 57 µg
ED50 by Subcutaneous Route × Two Doses [9]: 103 µg
ED50 by Subcutaneous Route × Two Doses [10]: 125 µg
ED50 by Subcutaneous Route × Two Doses [11]: 125 µg
ED50 by Subcutaneous Route × Two Doses [12]: 51 µg
ED50 by Subcutaneous Route × Two Doses [13]: 33 µg and 34 µg
ED50 by Subcutaneous Route × Two Doses [14]: 276 µg
appearance in the blood [15]: appears rapidly in the blood
resistance to enzymatic degradation ([16]; compared with cephalosporin C): more resistant to enzymatic degradation than cephalosporin C
resistance to bacterial inactivation ([16]; compared with other cephalosporins): more stable than the latter against certain microorganisms; also recorded: more resistant than cephalosporin C to inactivation by A. faecalis, A. viscosus, Escherichia coli 236, Proteus morganii 251, Proteus morganii 236 and Proteus mirabilis 241
apparent isoelectric point [17]: ~3.5 pH
pH stability [17]: unstable above pH 9.0; also recorded: relatively stable at pH 1.5; also recorded: unstable above pH 7
ED50 by Subcutaneous Route × 2 Doses (average of Two Trials) [18]: 273 µg
percent inactivation [19]: 38%
zone of inhibition at 166 µg/mL [20]: 18 mm
percent inactivation [21]: 54.4%
zone of inhibition at 166 µg/mL [22]: 56 mm
antibacterial activity [23]: exhibits activity against Salmonella schottmuelleri 3010, S. gallinarum and S. typhosa; also recorded: inhibits the growth of the following gram-negative bacteria: Escherichia coli, Proteus vulgaris, Alcaligenes faecalis, Brucella bronchiseptica, Salmonella gallinarum, Vibrio percolans and Xanthomonas vesicatoria; also recorded: inhibits the growth of the following gram-positive bacteria: Staphylococcus aureus, Sarcina lutea and Bacillus subtilis
antibacterial activity ([23]; listed as Antibiotic 842A): enhanced activity against gram-negative microorganisms
percent inactivation [24]: 5%
zone of inhibition at 166 µg/mL [25]: 19 mm
zone of inhibition at 166 µg/mL [26]: 13 mm
percent inactivation [27]: 69%
zone of inhibition at 166 µg/mL [28]: 8 mm
zone of inhibition at 166 µg/mL [29]: 21 mm
inhibition zone ([30]; 1:10 dilution, Example 10): 21.5 mm.
inhibition zone ([30]; 4 days, 0.5 inch discs, Example 9): 33 mm.
inhibition zone ([30]; four days, 0.5 inch discs, Example 8): 31.5 mm.
percent inactivation [31]: 80%
